“And” between values parts separate entries of the source, which are not always exact repeats. Equal values may be shown once.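 These data come from cells grown in 96-well plates and exposed to compound for 48 hours at five concentrations. Abbreviation: GI50, concentration required for 50% inhibition of growth. TGI: total growth inhibition.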
Legend:
Assay in all cases: NCI anticancer screen, dose series, 48 h
[1] = test system: M14 melanoma
[2] = test system: HL-60(TB) leukemia
[3] = test system: BT-549 breast
[4] = test system: SNB-75 CNS
[5] = test system: NCI/ADR-RES ovarian
[6] = test system: CCRF-CEM leukemia
[7] = test system: UACC-62 melanoma
[8] = test system: HT29 colon
[9] = test system: OVCAR-4 ovarian
[10] = test system: NCI-H522 lung

| Structure (SMILES) | GI50 [1] [µM] | TGI [1] [µM] | GI50 [2] | TGI [2] | GI50 [3] [µM] | TGI [3] [µM] | GI50 [4] [µM] | TGI [4] [µM] | GI50 [5] [µM] | TGI [5] [µM] | GI50 [6] | TGI [6] [µM] | GI50 [7] [µM] | TGI [7] [µM] | GI50 [8] | TGI [8] | GI50 [9] | TGI [9] [µM] | GI50 [10] [µM] | TGI [10] [µM] |
| --- | --- | --- | --- | --- | --- | --- | --- | --- | --- | --- | --- | --- | --- | --- | --- | --- | --- | --- | --- | --- |
| CC1=C2[C@@H](CC1)[C@]1(C)O[C@@](C(C)C)(C[C@H]1OC(=O)CO)[C@H]2OC(=O)C1CC1c1ccccc1 (some centres not stated) | 12.8 | 29.3 | 15 µM | 38 µM | 13.6 | 28.7 | 13.7 | 30.4 | 8.95 | 30.8 | 16.2 µM | 39.1 | 10.9 | 25.6 | 13.5 µM | 28.3 µM | 13 µM | 26.9 | 12.7 | 28 |
| COc1cc(Nc2ncc(-c3ccccc3)o2)cc(OC)c1 | > 25 | > 25 | > 25 µM | > 25 µM | > 25 | > 25 | 3.19 | > 25 | > 25 | > 25 | > 25 µM | > 25 | > 25 | > 25 | > 25 µM | > 25 µM | > 25 µM | > 25 | > 25 | > 25 |
| COc1ccc2c(c1)nc(C(=O)c1ccco1)c(C(F)(F)F)[n+]2[O-] | > 100 | > 100 | > 100 µM | > 100 µM | > 100 | > 100 | 51.4 | > 100 | > 100 | > 100 | > 100 µM | > 100 | > 100 | > 100 | > 100 µM | > 100 µM | > 100 µM | > 100 | > 100 | > 100 |
| COCc1c(-c2cc3cc(C)cc(OC)c3s2)c2c(N)ncnn2c1CN1CCNC(=O)C1 | 4.12 | 35.4 | 8.71 µM | 32.7 µM | 1.03 | 17.1 | 2.13 | 17.8 | 24.3 | > 100 | 3.42 µM | 53.8 | 4.08 | 23.5 | 3.68 µM | 19.9 µM | 1.88 µM | 61.1 | 3.78 | 25.3 |
| COc1ccc(C/C(=C(\C)c2ccc(OCCN3CCCC3)cc2)c2ccc(OCCN3CCCC3)cc2)cc1 | 1.67 | 3.5 | 1.67 µM | 3.63 µM | 1.67 | 3.25 | 1.59 | 3.22 | 1.96 | 3.71 | 1.8 µM | 4.51 | 1.78 | 3.38 | 1.58 µM | 3.07 µM | 2.08 µM | 5.1 | 1.86 | 3.53 |
| CCCCCCCCCCCCCCCCCCn1cc[n+](C)c1 | – | – | 0.143 µM and 0.293 µM | 0.336 µM and 1.67 µM | 1.17 | 2.71 | – | – | 1.58 | 5.47 | 0.127 µM and 0.458 µM | – | 1.04 | 2.3 | 0.403 µM and 0.358 µM | 1.64 µM and 1.45 µM | 0.645 µM and 0.518 µM | – | – | – |
